No end group written: not given here.
What was measured:
trh-1 mutant worms = assay: Size comparison (body volume) after rescue-by-feeding; type: in vivo, C. elegans; settings: trh-1 mutant animals fed peptide; N2 set as 100%
Protocol: All animals were maintained on bacterial lawns of OP50 E. coli, at 20° C., on NGM agar plates until the start of experiments. Mutant or control animals were transferred onto lawns of DH5α E. coli expressing either scramble peptide or the rescue peptide-of-interest on NGM plates containing […] AMP and 1 mM IPTG. Animals were reared on the peptide-expressing lawns for at least 48 hours at 20° C. before assaying for rescue of mutant phenotype at the appropriate developmental stage.
The body morphology different of trh-1 mutants was compared to wild-type worms by body volume measurements. Wild-type (N2) and trh-1 animals were synchronized by embryonic starvation following alkaline hypochlorite protocols. Ten gravid hermaphrodites from OP50 E. coli plates were picked into 30 μL drops of alkaline hypochlorite solution (20% sodium hypochlorite, 500 mM KOH). Two drops were placed on either side of an unseeded NGM plate, resulting in 20 animals per plate. Plates were then incubated for 24 hours at 20° C. before L1 larval animals washed with 1 mL M9 (22 mM KH2PO4, 42.25 mM Na2HPO4, 85.5 mM NaCl, 1 mM MgSO4) per unseeded NGM plate. Allow L1 worms to settle into pellet before removing M9 supernatant. Repeat washing step 2 more times. Plate worm pellet onto NGM with […] AMP and 1 mM IPTG plates containing 75 μL peptide lawns.
After at 48 hours at 20° C., animals were recorded using a Basler acA2500-14 uM camera using WormLab software (WormLab 4.1; MBF Bioscience, 2017) for 65 seconds. Worm length, width, and area were calculated within the WormLab software (FIG. 5C-FIG. 5H). As the WormLab worm width metric is an average of cross-sections throughout the length of each worm, this was used to calculate the volume of a worm as a cylinder, with the Volume=π*(0.5*width)^2*length (FIG. 2A-FIG. 2B, FIG. 5A-FIG. 5B).
Two to four plates were recorded per day for at least three days to generate data sets. Control plates of N2 and trh-1 animals raised on the scramble peptide were grown alongside every rescue feeding. Each “worm track” was considered an n=1. Tracks were excluded if (1) worm tracks less than 10 seconds, or (2) worms were further than two standard deviations from the mean metric. Following tests for normality, comparisons were made using either Mann-Whitney tests for direct comparisons between N2 and trh-1 animals reared on OP50, or Kruskal-Wallis non-parametric ANOVAs and Dunn's multiple comparisons tests for animals raised on peptide feeding strains. Comparisons were made for metrics: length (FIG. 5C-FIG. 5D), width (FIG. 5e-FIG. 5F), area (FIG. 5G-FIG. 5H), and volume (FIG. 2A-FIG. 2B, FIG. 5A-FIG. 5B).

him-5 and pdf-1 males = assay: Excursion (food-leaving) assay after rescue-by-feeding; type: in vivo, C. elegans; settings: Probability of Leaving per hour, beyond 35 mm from food
Source text: We quantified the behavioral activity of pdf-1 lof males using a food-leaving behavior as previously described. Individuals were placed on a small food spot, and track patterns were scored at three different time points (2, 6, 24 hrs) (FIG. 4A). “Never left food” indicate the absence of tracks outside the food spot. […] “Major excursion” indicates the presence of tracks past the 1 cm boundary (FIG. 1B, Excursion Assay). The food-leaving behavior was quantified as a measure of mate-searching behavior. In this behavior well-fed males left food in search of mates and the data is represented as a Probability of Leaving (PL) (FIG. 7A).
The mate searching behavior of pdf-1 mutants was quantified in a food leaving assay. him-5 animals were used as wild-type control to ensure the presence of males. him-5 and pdf-1 animals were fed OP50, scramble peptide, PDF-1A, PDF-1B, or a 1:1 mixture of PDF-1A and PDF-1B cultures. Four to six larval L4 hermaphrodites were passed onto an NGM plate containing […] AMP and 1 mM IPTG with 75 μL of peptide. These worms were grown at 20° C. for about 4 days until the male progeny of the initial L4 worms were young adults. The day prior to the assay, young adult male pdf-1 or him-5 worms were singled onto 60 mm plates containing lawns of either OP50 (NGM plates) or appropriate peptide cultures (NGM containing […] AMP and 1 mM IPTG). To determine the mate searching effects of pdf-1, we performed a food-leaving assay as described previously in Barrios, A., et al., Nat Neurosci 15, 1675-1682 (2012); Lipton, J., et al., The Journal of neuroscience: the official journal of the Society for Neuroscience 24, 7427-7434 (2004); Ryan, D. A. et al. Curr Biol 24, 2509-2517 (2014), with modifications. In this assay, individuals were placed on a small food spot, and track patterns were scored at the indicated times. Assay plates were prepared one day prior to assaying on 100 mm plates with 10 mL of Leaving Assay media (25 mM KPO4 (pH 6.0), 1 mM MgSO4, 1 mM CaCl2), 50 mM NaCl, 2.5 g/L Peptone, 17 g/L Agar). On center of plate, 7 μL of OP50 was added. Plates were lightly covered and stored at room temperature overnight (˜20° C., <40% humidity).
On the day of the assay, a single male was plated on the assay plate and placed in a dark, 20° C. incubator. At 2, 6, and 24 hours after the worms are plated, plates were scored for male worm tracks. Scored were separated into binned ranges. “Never left food” indicates the absence of tracks outside the food spot. […] “Major excursion” indicates the presence of tracks past the 1 cm boundary. The food leaving behavior was quantified at three different time points (2, 6, and 24 hours). (FIG. 4A, FIG. 7A, Table IV).
The mate searching defect of pdf-1 was quantified as a Probability of Leaving per hour (PL) (FIG. 4B, FIG. 7B).
The assay was performed across at least two days per condition, with at least n=50, wherein each assay plate with one male is equal to n=1. In all experiments, the investigators were blinded to genotype. Worm in the >35 mm from the center of food bin were scored as “leavers”. The probability of leaving per hour (Probability of Leaving (PL)) was calculated using an R script developed in Barrios et al., with assistance by (Personal Communications to Barrios, 2020). PL was calculated by the “hazard obtained by fitting an exponential parametric survival model to the censored data using maximum likelihood” (Table IV). The PLh-1 values for all pdf-1 animals fed scramble or peptide rescue were compared to him-5 worms fed scramble using an ANOVA followed by Bonferroni's multiple comparison (FIG. 4B, FIG. 7C).

NSKLHRGGGRSRTSGSTGSMASHARGSPGLQ-NH2 [SCRAMBLE, scramble control peptide expressed in E. coli DH5α, negative control, reference compound]
Relative Body Volume (trh-1 mutant worms): ~120%
PL (confidence interval) (him-5 and pdf-1 males; him-5 males): 0.07727 (0.06532, 0.09141)
PL (confidence interval) (him-5 and pdf-1 males; pdf-1 males): 0.03538 (0.02747, 0.04556)
